Molecules are shown by their SMILES. Where a name gives a salt, the structure may show the parent alone.

As a reminder, the IC50 is the concentration needed to halve the response being measured.

recombinant GST fusion MALT1 (human MALT1), sequence (Q9UDY8 whole entry, the tested form may be a part): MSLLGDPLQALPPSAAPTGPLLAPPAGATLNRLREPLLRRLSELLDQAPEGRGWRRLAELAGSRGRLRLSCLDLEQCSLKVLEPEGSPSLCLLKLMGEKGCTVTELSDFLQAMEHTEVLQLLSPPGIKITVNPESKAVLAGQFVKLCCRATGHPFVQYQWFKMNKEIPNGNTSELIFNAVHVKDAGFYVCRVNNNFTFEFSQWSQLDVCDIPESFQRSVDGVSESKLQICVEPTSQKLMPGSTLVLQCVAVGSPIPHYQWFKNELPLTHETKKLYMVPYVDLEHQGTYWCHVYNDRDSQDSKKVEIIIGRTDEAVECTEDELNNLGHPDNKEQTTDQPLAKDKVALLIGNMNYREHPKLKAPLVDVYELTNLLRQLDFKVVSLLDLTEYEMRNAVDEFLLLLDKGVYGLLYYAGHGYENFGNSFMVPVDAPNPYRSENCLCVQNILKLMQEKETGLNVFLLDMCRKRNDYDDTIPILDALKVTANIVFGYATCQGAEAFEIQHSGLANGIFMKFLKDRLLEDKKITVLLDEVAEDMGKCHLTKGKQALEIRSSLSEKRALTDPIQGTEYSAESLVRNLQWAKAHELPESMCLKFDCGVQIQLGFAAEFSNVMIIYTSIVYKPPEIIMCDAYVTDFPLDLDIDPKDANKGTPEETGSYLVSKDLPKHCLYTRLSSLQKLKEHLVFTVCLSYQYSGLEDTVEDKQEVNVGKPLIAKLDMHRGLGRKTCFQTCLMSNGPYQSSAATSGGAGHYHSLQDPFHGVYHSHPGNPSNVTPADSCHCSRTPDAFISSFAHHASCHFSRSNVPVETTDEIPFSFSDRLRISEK

This assay concerns the target recombinant GST fusion MALT1 (human MALT1) (Homo sapiens (Human), UniProt Q9UDY8). The assay is described as follows: Evaluation of inhibition of protease activity of MALT1 (cleavage of fluorescent peptide substrate Ac-LRSR-AMC). The format is biochemical. The conditions noted are these: substrate Ac-LRSR-AMC 20 μmol/L, 30° C. for 80 minutes. The protocol: The guanidine derivative (I) or the pharmacologically acceptable salt thereof was evaluated for its inhibition of the protease activity of MALT1 in an in vitro experimental system in accordance with the method described in the literature (Cancer Cell, 2012, Vol. 22, p. 825-837). Specifically, the evaluation was conducted by measuring the degree of reduction in fluorescence value by the compound relative to elevation in fluorescence value resulting from the cleavage of a fluorescently labeled artificial peptide substrate by recombinant MALT1.
A) Preparation of Recombinant GST Fusion MALT1:
Full-length cDNA of human MALT1 gene (GenBank accession No: AB026118.1) amplified by PCR was inserted in flame to a SalI site located downstream of GST gene in a pGEX6P3 vector (GE Healthcare Japan Corp.) to prepare a vector (hereinafter, referred to as a pGEX6P3-MALT1 vector). Subsequently, E. coli for protein expression (BL21-RIL-codon plus-DE3, Agilent Technologies, Inc.) was transformed with the pGEX6P3-MALT1 vector and then analyzed by ampicillin resistance screening and colony PCR to obtain an E. coli strain expressing recombinant GST fusion MALT1. Protein expression was induced with isopropyl-(3-thiogalactopyranoside. After the expression induction, E. coli precipitates were recovered by centrifugation from the E. coli culture solution, and the E. coli precipitates were homogenized and then centrifuged to obtain a supernatant. The supernatant was purified using GSTrap FF column (GE Healthcare Japan Corp.) to obtain recombinant GST fusion MALT1.
B) Evaluation of Inhibition of Protease Activity of MALT1:
To 89 μL of an enzyme solution ([…] GST fusion MALT1, 50 mmol/L MES, 150 mmol/L NaCl, 10% sucrose, 0.1% CHAPS, 10 mmol/L dithiothreitol, and 1 mol/L tri-ammonium citrate) per specimen, 1 μL of a test compound (DMSO-diluted solution) of each concentration was added to prepare a mixed solution. The mixed solution was incubated at room temperature for 30 minutes, followed by the measurement of the fluorescence value of the mixed solution (fluorescence value of the first measurement) (Ex: 380 nm, Em: 460 nm; Envision (Perkin Elmer Inc.)). Next, 10 μL of 200 μmol/L substrate (Ac-LRSR-AMC, SM Biochemicals LLC) was added (final concentration: 20 μmol/L) to the mixed solution, and the mixture was reacted by incubation at 30° C. for 80 minutes, followed by the measurement of the fluorescence value of the reaction solution (fluorescence value of the second measurement) (Ex: 380 nm, Em: 460 nm; Envision (Perkin Elmer Inc.)). A “well nonsupplemented with the test compound (only DMSO was added), nonsupplemented with the enzyme and supplemented with the substrate”, and a “well nonsupplemented with the test compound (only DMSO was added), supplemented with the enzyme and supplemented with the substrate” were established.
The fluorescence value of the first measurement was defined as “F1”, and the fluorescence value of the second measurement was defined as “F2”. F2−F1 of the “well nonsupplemented with the test compound (only DMSO was added), nonsupplemented with the enzyme and supplemented with the substrate” was defined as “Fback”, F2−F1 of the “well nonsupplemented with the test compound (only DMSO was added), supplemented with the enzyme and supplemented with the substrate” was defined as “Fpositive”, and F2−F1 of the “well supplemented with the test compound, supplemented with the enzyme and supplemented with the substrate” was defined as “Fsample”. The rate of inhibition (%) of the protease activity of MALT1 by the test compound was calculated according to the following expression. Rate of inhibition (%)=100×(1−(Fsample−Fback)/(Fpositive−Fback))
On to `N/C(=N\S(=O)(=O)c1cc2ccccc2s1)NCc1cnc(-c2ccc(Cl)cc2)c(-c2ccc(Cl)cc2)c1` [Compound of Example 55, N-(amino(((5,6-bis(4-chlorophenyl)pyridin-3-yl)methyl)amino)methylene)benzo[b]thiophene-2-sulfonamide], for which the concentration for half-maximal inhibition (IC50) was determined as 183 nM. `N/C(=N\S(=O)(=O)c1ccccc1)NCc1cnc(-c2cccc(F)c2)c(-c2ccc(Cl)cc2)c1` [Compound of Example 9, N-(amino(((5-(4-chlorophenyl)-6-(3-fluorophenyl)pyridin-3-yl)methyl)amino)methylene)benzenesulfonamide]: the IC50 is 1710 nM. The same measure for `N/C(=N\S(=O)(=O)c1ccccc1)NCc1cnc(-c2ccc(Cl)cc2)c(-c2ccccc2Cl)c1` [Compound of Example 16, N-(amino(((5-(2-chlorophenyl)-6-(4-chlorophenyl)pyridin-3-yl)methyl)amino)methylene)benzenesulfonamide]: 2410 nM; for `N/C(=N\C(=O)c1ccc(C(F)(F)F)cc1)NCc1cnc(-c2ccc(Cl)cc2)c(-c2ccc(Cl)cc2)c1` [Compound of Example 77, N-(amino(((5,6-bis(4-chlorophenyl)pyridin-3-yl)methyl)amino)methylene)-4-trifluoromethylbenzamide]: 817 nM. For `N/C(=N\S(=O)(=O)c1ccccc1)NCc1cnc(-c2ccc(C(F)(F)F)cc2)c(-c2ccc(Cl)cc2)c1` [Compound of Example 11, N-(amino(((5-(4-chlorophenyl)-6-(4-(trifluoromethyl)phenyl)pyridin-3-yl)methyl)amino)methylene)benzenesulfonamide], the half-inhibitory concentration (IC50) amounted to 348 nM. As to `N/C(=N\S(=O)(=O)c1ccccc1)NCc1cnc(-c2ccc(Cl)cc2)c(-c2ccc(F)cc2)c1` [Compound of Example 20, N-(amino(((6-(4-chlorophenyl)-5-(4-fluorophenyl)pyridin-3-yl)methyl)amino)methylene)benzenesulfonamide], the IC50 came out at 1110 nM. As for `N/C(=N\S(=O)(=O)c1ccccc1)NCc1cnc(-c2ccc(Cl)cc2)c(-c2cccc(Cl)c2)c1` [Compound of Example 15, N-(amino(((5-(3-chlorophenyl)-6-(4-chlorophenyl)pyridin-3-yl)methyl)amino)methylene)benzenesulfonamide], the IC50 was determined as 308 nM. As for `COc1ccccc1S(=O)(=O)/N=C(\N)NCc1cnc(-c2ccc(Cl)cc2)c(-c2ccc(Cl)cc2)c1` [Compound of Example 49, N-(amino(((5,6-bis(4-chlorophenyl)pyridin-3-yl)methyl)amino)methylene)-2-methoxybenzenesulfonamide], the half-maximal inhibitory concentration (IC50) is 326 nM. As for `N/C(=N\C(=O)C1CCCCC1)NCc1cnc(-c2ccc(Cl)cc2)c(-c2ccc(Cl)cc2)c1` [Compound of Example 73, N-(amino(((5,6-bis(4-chlorophenyl)pyridin-3-yl)methyl)amino)methylene)cyclohexanecarboxamide Hydrochloride], the IC50 amounted to 300 nM.

With `N#Cc1ccc(C(=O)/N=C(\N)NCc2cnc(-c3ccc(Cl)cc3)c(-c3ccc(Cl)cc3)c2)cc1` [Compound of Example 62, N-(amino(((5,6-bis(4-chlorophenyl)pyridin-3-yl)methyl)amino)methylene)-4-cyanobenzamide], the IC50 is 471 nM. In the case of `N/C(=N\C(=O)c1cscn1)NCc1cnc(-c2ccc(Cl)cc2)c(-c2ccc(Cl)cc2)c1` [Compound of Example 83, N-(amino(((5,6-bis(4-chlorophenyl)pyridin-3-yl)methyl)amino)methylene)thiazole-4-carboxamide], the IC50 is 942 nM. The figure for `O=S(=O)(/N=C(\NO)NCc1cnc(-c2ccc(Cl)cc2)c(-c2ccc(Cl)cc2)c1)c1ccccc1` [Compound of Example 39, N-((((5,6-bis(4-chlorophenyl)pyridin-3-yl)methyl)amino)(hydroxyamino)methylene)benzenesulfonamide] is 106 nM; for `N/C(=N\S(=O)(=O)Cc1ccccc1)NCc1cnc(-c2ccc(Cl)cc2)c(-c2ccc(Cl)cc2)c1` [Compound of Example 59, N-(amino(((5,6-bis(4-chlorophenyl)pyridin-3-yl)methyl)amino)methylene)-1-phenylmethanesulfonamide] it is 746 nM.

Turning to `N/C(=N\S(=O)(=O)c1ccccc1)NCc1cnc(-c2ccc(Cl)cc2)c(-c2ccc(OC(F)(F)F)cc2)c1` [Compound of Example 22, N-(amino(((6-(4-chlorophenyl)-5-(4-(trifluoromethoxy)phenyl)pyridin-3-yl)methyl)amino)methylene)benzenesulfonamide], the IC50 came to 745 nM. In the case of `N/C(=N\S(=O)(=O)c1ccccc1)NCc1ncc(-c2ccc(Cl)cc2)c(-c2ccc(Cl)cc2)n1` [Compound of Example 87, N-(amino(((4,5-bis(4-chlorophenyl)pyrimidin-2-yl)methyl)amino)methylene)benzenesulfonamide], the IC50 is 72 nM. The same measure for `N#Cc1cccc(S(=O)(=O)/N=C(\N)NCc2cnc(-c3ccc(Cl)cc3)c(-c3ccc(Cl)cc3)c2)c1` [Compound of Example 47, N-(amino(((5,6-bis(4-chlorophenyl)pyridin-3-yl)methyl)amino)methylene)-3-cyanobenzenesulfonamide]: 320 nM; for `N/C(=N\C(=O)c1ccc(F)cc1)NCc1cnc(-c2ccc(Cl)cc2)c(-c2ccc(Cl)cc2)c1` [Compound of Example 66, N-(amino(((5,6-bis(4-chlorophenyl)pyridin-3-yl)methyl)amino)methylene)-4-fluorobenzamide]: 1130 nM.

With `CC(N/C(N)=N/S(=O)(=O)c1ccccc1)c1cnc(-c2ccc(Cl)cc2)c(-c2ccc(Cl)cc2)c1` (stereo not drawn) [Compound of Example 46, N-(amino((1-(5,6-bis(4-chlorophenyl)pyridin-3-yl)ethyl)amino)methylene)benzenesulfonamide], the IC50 stood at 539 nM. On to `N#Cc1ccc(S(=O)(=O)/N=C(\N)NCc2cnc(-c3ccc(Cl)cc3)c(-c3ccc(Cl)cc3)c2)cn1` [Compound of Example 52, N-(amino(((5,6-bis(4-chlorophenyl)pyridin-3-yl)methyl)amino)methylene)-6-cyanopyridine-3-sulfonamide], for which the 50% inhibitory concentration (IC50) was found to be 390 nM. For `N/C(=N\S(=O)(=O)c1ccccc1)NCc1cc(-c2ccc(Cl)cc2)c(-c2ccc(Cl)cc2)nc1F` [Compound of Example 89, N-(amino(((5,6-bis(4-chlorophenyl)-2-fluoropyridin-3-yl)methyl)amino)methylene)benzenesulfonamide], the IC50 was determined as 368 nM. Turning to `N/C(=N\S(=O)(=O)C1CCCC1)NCc1cnc(-c2ccc(Cl)cc2)c(-c2ccc(Cl)cc2)c1` [Compound of Example 57, N-(amino(((5,6-bis(4-chlorophenyl)pyridin-3-yl)methyl)amino)methylene)cyclopentanesulfonamide], the IC50 was determined as 517 nM. Turning to `N/C(=N\C(=O)c1ccc(Cl)cc1)NCc1cnc(-c2ccc(Cl)cc2)c(-c2ccc(Cl)cc2)c1` [Compound of Example 76, N-(amino(((5,6-bis(4-chlorophenyl)pyridin-3-yl)methyl)amino)methylene)-4-chlorobenzamide], the IC50 was found to be 1510 nM. In the case of `COc1nc(-c2ccc(Cl)cc2)c(-c2ccc(Cl)cc2)cc1CN/C(N)=N/S(=O)(=O)c1ccccc1` [Compound of Example 88, N-(amino(((5,6-bis(4-chlorophenyl)-2-methoxypyridin-3-yl)methyl)amino)methylene)benzenesulfonamide], the IC50 came to 104 nM.

Take `N/C(=N\C(=O)c1ccsc1)NCc1cnc(-c2ccc(Cl)cc2)c(-c2ccc(Cl)cc2)c1` [Compound of Example 68, N-(amino(((5,6-bis(4-chlorophenyl)pyridin-3-yl)methyl)amino)methylene)thiophene-3-carboxamide]: the half-inhibitory concentration (IC50) amounted to 570 nM.

Values taken from patent US10662156B2, “Guanidine derivative and medical use thereof” (Toray Industries, Inc., priority 2016, dated 2020).
